pIC50: −log10 of the molar value. Active and inactive are the calls of the source. No cut-off for these calls is given here.
Tests used:
[1] = tested on: Hepatitis B virus; test: Antiviral activity against HBV infected in human HepG2-NTCP cells assessed as reduction in HBeAg secretion incubated for 24 hrs followed replacement with fresh medium and measured at day 5 post infection by ELISA; type: functional, organism-based
[2] = tested on: Hepatitis B virus; test: Antiviral activity against HBV infected in human HepG2-NTCP cells assessed as reduction in HBeAg secretion at 111 to 1000 nM incubated for 24 hrs followed by replacement with fresh medium and measured at day 5 post infection by ELISA; type: functional, organism-based; details: dose 111-1000 nM
[3] = tested on: Hepatitis B virus; test: Antiviral activity against HBV infected in human HepG2-NTCP cells assessed as reduction in intracellular HBV RNA level at 1 uM by qPCR analysis; type: functional, organism-based
[4] = tested on: Hepatitis B virus; test: Antiviral activity against HBV infected in human HepG2-NTCP cells assessed as reduction in intracellular accumulation of HBcAg at 1 uM by immunostaining based fluorescence microscopic analysis; type: functional, organism-based
[5] = tested on: Hepatitis B virus; test: Antiviral activity against HBV infected in human HepG2-NTCP cells assessed as reduction in intracellular accumulation of HBsAg at 1 uM by immunostaining based fluorescence microscopic analysis; type: functional, organism-based
[6] = tested on: Hepatitis delta virus; test: Antiviral activity against HDV infected in human HepG2-NTCP cells assessed as reduction in intranuclear accumulation of HDV delta antigen at 5 uM incubated for 24 hrs followed by replacement with fresh medium and measured at day 5 post infection by DAPI staining based confocal microscopic analysis (reference value: 12.1 %); type: functional; set-up: scale not given: the % may be the effect or the level left
[7] = tested on: Hepatitis B virus; test: Antiviral activity against HBV infected in human HepG2-NTCP cells assessed as reduction in HBeAg secretion at 1 uM preincubated with compound followed by viral infection by ELISA; type: functional, organism-based
[8] = tested on: Hepatitis B virus; test: Antiviral activity against HBV infected in human HepG2-NTCP cells assessed as reduction in HBeAg secretion at 1 uM compound added along with viral infection by ELISA; type: functional, organism-based
[9] = tested on: Hepatitis B virus; test: Antiviral activity against HBV infected in human HepG2-NTCP cells assessed as reduction in HBeAg secretion at 1 uM pre-infected with virus followed by compound addition by ELISA; type: functional, organism-based
[10] = molecular target: T1, Hepatic sodium/bile acid cotransporter (Homo sapiens, UniProt Q14973); test: Inhibition of FITC-labeled HBV Pre-S1 polypeptide binding to human NTCP expressed in HepG2 cells after 2 to 3 hrs by confocal microscopic analysis; type: cell-based; details: time 2-3 hrs
T1 sequence (Q14973 whole entry): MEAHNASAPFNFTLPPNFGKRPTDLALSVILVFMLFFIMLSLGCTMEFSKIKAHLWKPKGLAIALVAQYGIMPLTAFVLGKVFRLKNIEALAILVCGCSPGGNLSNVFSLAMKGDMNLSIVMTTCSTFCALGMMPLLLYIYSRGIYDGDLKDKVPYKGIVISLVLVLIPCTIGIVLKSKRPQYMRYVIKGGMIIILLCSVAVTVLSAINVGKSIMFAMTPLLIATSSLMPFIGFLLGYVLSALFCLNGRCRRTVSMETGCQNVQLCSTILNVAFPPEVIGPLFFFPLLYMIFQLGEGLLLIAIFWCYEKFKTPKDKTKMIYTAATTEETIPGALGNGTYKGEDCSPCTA

[11] = tested on: HepG2; test: Cytotoxicity against human HepG2 cells expressing NTCP assessed as reduction in cell viability at 10 uM after 48 hrs by alamar blue assay; type: cell-based; details: hepg2, 48 h
[12] = tested on: Hepatocyte; test: Cytotoxicity against primary tupaia hepatocytes expressing NTCP assessed as reduction in cell viability at 100 uM after 48 hrs by Cell-Titer Glo assay; type: cell-based; details: scandentia
[13] = tested on: HepG2; test: Effect on NTCP surface expression in human HepG2-NTCP cells assessed as reduction in NTCP surface expression level after 2 hrs by immunostaining based assay; type: functional, cell-based
[14] = molecular target: T1, Hepatic sodium/bile acid cotransporter; test: Inhibition of human NTCP-mediated [3H]-TCA uptake expressed in human HepG2 cells at 2 uM; type: cell-based; details: hepg2, 2 µM
[15] = molecular target: T2, Ileal sodium/bile acid cotransporter (Homo sapiens, UniProt Q12908); test: Inhibition of human ASBT-mediated [3H]-TCA uptake expressed in human HepG2 cells at 2 uM; type: cell-based; details: hepg2, 2 µM
T2 sequence (Q12908 whole entry): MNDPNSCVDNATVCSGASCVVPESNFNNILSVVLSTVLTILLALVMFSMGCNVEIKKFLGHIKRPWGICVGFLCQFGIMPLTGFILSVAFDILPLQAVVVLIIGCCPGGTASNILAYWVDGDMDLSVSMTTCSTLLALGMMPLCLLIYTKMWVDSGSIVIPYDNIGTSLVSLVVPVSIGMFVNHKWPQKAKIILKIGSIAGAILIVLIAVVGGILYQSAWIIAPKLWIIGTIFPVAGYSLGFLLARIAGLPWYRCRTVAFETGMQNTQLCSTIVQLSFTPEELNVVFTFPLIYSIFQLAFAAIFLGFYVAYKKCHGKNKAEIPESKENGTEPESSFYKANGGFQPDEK

[16] = molecular target: T1, Hepatic sodium/bile acid cotransporter; test: Inhibition of human NTCP-mediated [3H]-Estrone sulfate uptake expressed in human HepG2 cells at 2 uM; type: cell-based; details: hepg2, 2 µM
[17] = molecular target: T3, Solute carrier organic anion transporter family member 1B1 (Homo sapiens, UniProt Q9Y6L6); test: Inhibition of human OATP1B1-mediated [3H]-Estrone sulfate uptake expressed in human HepG2 cells at 2 uM; type: cell-based; details: hepg2, 2 µM
T3 sequence (Q9Y6L6 whole entry): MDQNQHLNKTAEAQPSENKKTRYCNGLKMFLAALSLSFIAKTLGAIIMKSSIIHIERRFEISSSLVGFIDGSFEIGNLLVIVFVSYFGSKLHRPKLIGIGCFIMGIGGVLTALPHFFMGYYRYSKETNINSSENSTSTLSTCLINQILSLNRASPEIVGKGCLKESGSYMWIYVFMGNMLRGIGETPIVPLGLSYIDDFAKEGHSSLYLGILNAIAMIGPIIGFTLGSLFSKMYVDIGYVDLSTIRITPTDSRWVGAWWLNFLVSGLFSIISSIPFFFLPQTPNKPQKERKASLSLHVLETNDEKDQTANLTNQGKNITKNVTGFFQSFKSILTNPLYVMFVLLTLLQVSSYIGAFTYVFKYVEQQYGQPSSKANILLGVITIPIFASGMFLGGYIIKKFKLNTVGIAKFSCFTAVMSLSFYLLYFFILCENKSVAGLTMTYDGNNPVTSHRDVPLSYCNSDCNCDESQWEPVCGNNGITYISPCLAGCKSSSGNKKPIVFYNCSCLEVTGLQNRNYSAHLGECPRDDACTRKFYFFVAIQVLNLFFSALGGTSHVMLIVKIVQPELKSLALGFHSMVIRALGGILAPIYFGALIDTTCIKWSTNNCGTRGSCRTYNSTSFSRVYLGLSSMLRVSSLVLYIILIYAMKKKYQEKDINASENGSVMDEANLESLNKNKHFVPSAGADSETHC

[18] = molecular target: T1, Hepatic sodium/bile acid cotransporter; test: Inhibition of human NTCP-mediated NQL-064 uptake expressed in human HepG2 cells incubated for 30 mins; type: cell-based; details: hepg2, 0.5 h
[19] = molecular target: T1, Hepatic sodium/bile acid cotransporter; test: Inhibition of human NTCP-mediated NQL-065 uptake expressed in human HepG2 cells incubated for 30 mins; type: cell-based; details: hepg2, 0.5 h
[20] = tested on: Hepatitis B virus; test: Antiviral activity against HBV infected in human HepG2-NTCP cells assessed as reduction in HBeAg secretion preincubated for 2 hrs followed by viral infection by ELISA; type: functional, organism-based
[21] = molecular target: T1, Hepatic sodium/bile acid cotransporter; test: Inhibition of human NTCP-mediated [3H]-TCA uptake expressed in human HepG2 cells; type: cell-based; details: human, hepg2
[22] = tested on: HepG2; test: Inhibition of monkey NTCP-mediated [3H]-TCA uptake expressed in human HepG2 cells; type: cell-based; details: Macaca mulatta
[23] = molecular target: T4, Hepatic sodium/bile acid cotransporter (Mus musculus, UniProt O08705); test: Inhibition of mouse NTCP-mediated [3H]-TCA uptake expressed in human HepG2 cells; type: cell-based
T4 sequence (O08705 whole entry): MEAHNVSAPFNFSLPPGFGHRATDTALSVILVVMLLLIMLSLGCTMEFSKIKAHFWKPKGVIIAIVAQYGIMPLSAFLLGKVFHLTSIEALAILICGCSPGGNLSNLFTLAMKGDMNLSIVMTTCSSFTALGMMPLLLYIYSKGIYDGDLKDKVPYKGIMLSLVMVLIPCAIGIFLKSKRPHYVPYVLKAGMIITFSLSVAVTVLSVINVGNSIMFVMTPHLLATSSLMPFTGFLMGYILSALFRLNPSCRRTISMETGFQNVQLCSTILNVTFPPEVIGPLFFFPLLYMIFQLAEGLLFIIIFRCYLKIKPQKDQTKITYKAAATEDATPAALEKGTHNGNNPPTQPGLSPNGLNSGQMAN

[24] = tested on: HepG2; test: Inhibition of tree shrew NTCP-mediated [3H]-TCA uptake expressed in human HepG2 cells; type: cell-based; details: Scandentia
[25] = molecular target: T1, Hepatic sodium/bile acid cotransporter; test: Inhibition of human NTCP-mediated [3H]-TCA uptake expressed in human HepG2 cells pretreated for 2 hrs followed by [3H]-TCA addition in absence of FBS; type: cell-based

## C[C@H](CCCN(CC[C@@H](C)[C@H]1CC[C@H]2[C@@H]3[C@@H](O)C[C@@H]4C[C@H](O)CC[C@]4(C)[C@H]3CC[C@]12C)CCS(=O)(=O)O)[C@H]1CC[C@H]2[C@@H]3[C@@H](O)C[C@@H]4C[C@H](O)CC[C@]4(C)[C@H]3CC[C@]12C
[1]
  pIC50: 6.96
[2]
  Activity: Active
[3]
  Activity: Active
[4]
  Activity: Active
[5]
  Activity: Active
[6]
  Activity: 4.6%
[7]
  Activity: Active
[8]
  Activity: Active
[9]
  Activity: inactive
[10]
  inhibition (INH): Active
[11]
  Activity: Non-Toxic
[12]
  Activity: Non-Toxic
[13]
  Activity: inactive
[14]
  inhibition (INH): Active
[15]
  inhibition (INH): Not Active
[16]
  inhibition (INH): Active
[17]
  inhibition (INH): Not Active
[18]
  inhibition (INH): Active
[19]
  inhibition (INH): Active
[20]
  Activity: Active
[21]
  inhibition (INH): Active
[22]
  inhibition: Active
[23]
  inhibition (INH): Active
[24]
  inhibition: Active

## C[C@@H]1CCC(=O)NCCNC(=O)CC[C@@H](C)[C@H]2CC[C@H]3[C@@H]4[C@@H](O)C[C@@H]5C[C@@H](CC[C@]5(C)[C@H]4CC[C@]23C)n2cc(nn2)CO[C@@H]2CC[C@@]3(C)[C@@H](C2)C[C@H](O)[C@@H]2[C@@H]3CC[C@]3(C)[C@@H]1CC[C@@H]23
[1]
  pIC50: 7.09
[25]
  pIC50: 7.43

## C[C@@H]1CCC(=O)NCCNC(=O)CC[C@@H](C)[C@H]2CC[C@H]3[C@@H]4[C@@H](O)C[C@@H]5C[C@@H](CC[C@]5(C)[C@H]4CC[C@]23C)NC(=O)CCCC(=O)N[C@@H]2CC[C@@]3(C)[C@@H](C2)C[C@H](O)[C@@H]2[C@@H]3CC[C@]3(C)[C@@H]1CC[C@@H]23
[1]
  pIC50: 7.00
[2]
  Activity: Active
[3]
  Activity: Active
[4]
  Activity: Active
[5]
  Activity: Active
[6]
  Activity: 2.9%
[7]
  Activity: Active
[8]
  Activity: Active
[9]
  Activity: inactive
[10]
  inhibition (INH): Active
[11]
  Activity: Non-Toxic
[12]
  Activity: Non-Toxic
[13]
  Activity: inactive
[14]
  inhibition (INH): Active
[15]
  inhibition (INH): Not Active
[16]
  inhibition (INH): Active
[17]
  inhibition (INH): Not Active

## C[C@H](CCC(=O)NCCS(=O)(=O)O)[C@H]1CC[C@H]2[C@@H]3[C@@H](O)C[C@@H]4C[C@H](OC(=O)CCCC(=O)O[C@@H]5CC[C@@]6(C)[C@@H](C5)C[C@H](O)[C@@H]5[C@@H]6CC[C@]6(C)[C@@H]([C@H](C)CCC(=O)NCCS(=O)(=O)O)CC[C@@H]56)CC[C@]4(C)[C@H]3CC[C@]12C
[1]
  pIC50: 7.19
[2]
  Activity: Active
[3]
  Activity: Active
[4]
  Activity: Active
[5]
  Activity: Active
[6]
  Activity: 2.8%
[7]
  Activity: Active
[8]
  Activity: Active
[9]
  Activity: inactive
[10]
  inhibition (INH): Active
[11]
  Activity: Non-Toxic
[12]
  Activity: Non-Toxic
[13]
  Activity: inactive
[14]
  inhibition (INH): Active
[15]
  inhibition (INH): Not Active
[16]
  inhibition (INH): Active
[17]
  inhibition (INH): Not Active
[18]
  inhibition (INH): Active
[19]
  inhibition (INH): Active
[20]
  Activity: inactive

## C[C@H](CCc1cn([C@@H]2CC[C@@]3(C)[C@@H](C2)C[C@H](O)[C@@H]2[C@@H]3CC[C@]3(C)[C@@H]([C@H](C)CCC(=O)O)CC[C@@H]23)nn1)[C@H]1CC[C@H]2[C@@H]3[C@@H](O)C[C@@H]4C[C@H](O)CC[C@]4(C)[C@H]3CC[C@]12C
[1]
  pIC50: 7.60

Source: ChEMBL document CHEMBL4834431, “Design of Dimeric Bile Acid Derivatives as Potent and Selective Human NTCP Inhibitors” (J Med Chem, 2021)
